From patent US20170268001A1, “RNAS WITH TUMOR RADIO/CHEMO-SENSITIZING AND IMMUNOMODULATORY PROPERTIES AND METHODS OF THEIR PREPARATION AND APPLICATION” (THE UNIVERSITY OF CHICAGO, priority 2016, published 2017)

T1: RIG-I (Homo sapiens, UniProt O95786, K858A/K861A)
T1 construct: HEK293 cells overexpressing either the full length RIG-I; host or cells: HEK293; HCT116 also for the qRT-PCR validation
T1 sequence (O95786 1-925 K858A/K861A): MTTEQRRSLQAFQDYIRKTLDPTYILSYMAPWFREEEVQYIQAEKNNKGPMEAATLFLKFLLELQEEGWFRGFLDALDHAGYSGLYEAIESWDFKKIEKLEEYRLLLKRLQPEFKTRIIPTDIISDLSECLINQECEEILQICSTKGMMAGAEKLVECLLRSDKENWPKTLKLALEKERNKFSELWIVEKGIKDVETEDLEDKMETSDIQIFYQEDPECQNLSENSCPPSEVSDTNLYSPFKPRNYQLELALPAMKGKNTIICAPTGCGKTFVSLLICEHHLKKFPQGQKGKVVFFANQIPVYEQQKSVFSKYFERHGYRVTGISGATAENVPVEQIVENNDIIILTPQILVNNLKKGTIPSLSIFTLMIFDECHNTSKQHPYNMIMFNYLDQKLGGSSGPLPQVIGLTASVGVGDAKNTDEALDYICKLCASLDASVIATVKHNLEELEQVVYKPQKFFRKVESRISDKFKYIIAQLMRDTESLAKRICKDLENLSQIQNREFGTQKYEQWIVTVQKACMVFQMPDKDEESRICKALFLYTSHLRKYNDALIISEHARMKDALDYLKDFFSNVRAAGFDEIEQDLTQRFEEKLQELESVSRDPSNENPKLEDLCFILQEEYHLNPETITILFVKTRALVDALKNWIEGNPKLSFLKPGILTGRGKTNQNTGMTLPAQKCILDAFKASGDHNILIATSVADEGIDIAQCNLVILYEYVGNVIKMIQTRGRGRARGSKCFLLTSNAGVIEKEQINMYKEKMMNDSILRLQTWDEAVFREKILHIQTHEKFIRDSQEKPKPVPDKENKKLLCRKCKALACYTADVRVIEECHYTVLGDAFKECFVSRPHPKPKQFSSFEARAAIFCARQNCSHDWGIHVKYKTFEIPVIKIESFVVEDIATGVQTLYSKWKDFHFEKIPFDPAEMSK

B1: M5: rbRNA, RIG-I agonist, 81 nucleotides, SEQ ID NO:26 (nucleic acid)
chain: GACGAAGACCACAAAACCAGATAAAAAATTATTTTTTATCTGGTTTTGTGGTCTTCGTCTATAGTGAGTCGTATTAATTTC
modifications: listed as DNA, chemistry not given here

Biological target: T1, RIG-I
Assay: UV cross-linking with quantitative real-time PCR (CLIP-PCR) of RIG-I complexes
Format: binding
Description: Graphic representation indicating the distribution of non-coding and repetitive RNA molecules bound to RIG-I following exposure to IR as compared to total irradiated cellular RNA. Transcripts were mapped to reference genomes using RepeatMasker. See Methods for further details. […] Cells were UV crosslinked at 150 mJ/cm^2 48 hours post-IR treatment prior to cell lysis. […] FIG. 29H show IFN-b levels in culture supernatant from ICR RIG-I^+/+ and primary MEFs 24 hours post-stimulation with the same set of synthetic U1 oligonucleotides used in (FIG. 29G) The amount of U1 synthetic oligonucleotides used in all stimulation experiments was 1 μg. P values were determined using unpaired Student's t-test. Error bars are SEM. ***P<0.005.
Technically, identification of RNAs was performed as follows: HEK293 cells were transiently transfected with 3×FLAG-tagged full-size RIG-I in pEF-BOS vector (Addgene; Cambridge, Mass.). Twenty-four hours post-transfection, cells were either mock-irradiated or exposed to IR (6 Gy). Forty-eight hours post-IR, cells were lysed with a modified lysis buffer (50 mM Tris-Cl pH 7.5, 0.15 M NaCl, 0.1% NP-40, 1.0% Triton X-100, 1 mM EDTA pH8.0, 1 mM EGTA pH8.0, 10% Glycerol, 2.5 mM MgCl2, 1 mM DTT, 0.1 mM ATP, and 1× Halt Protease Inhibitor) and incubated on ice for 1 hour. Cell lysates were separated from cell debris by centrifugation at 12,000 rpm at 4° C. Protein concentration was measured by BCA kit. Anti-FLAG monoclonal antibody was added to the cell lysate at a 1:500 dilution, and incubated overnight at 4° C. Protein G sepharose beads were added to the lysates and incubated for at least 2 hours at 4° C. Beads containing the antibody-RIG-I complexes were washed five times in wash buffer (50 mM Tris-Cl pH 7.5, 0.15 M NaCl, 1 mM MgCl2, 0.05% NP-40, 1 mM DTT) and proteins were eluted from the beads using a soft elution buffer (0.5% SDS, 0.1% Tween-20, 50 mM Tris pH 8.0) for 10 minutes at room temperature with vortexing every 2-3 minutes. Proteinase K was added to the eluates and incubated at 50° C. for 45 minutes. Trizol reagent was then added to the solution, and RNA bound to RIG-I was purified following manufacturer's protocol. RNA quality was analyzed using an Agilent Bioanalyzer 2100 with Pico Series II cartridges. RNA yield was measured using the Qubit RNA Broad Range kit. For qRT-PCR validation experiments of RIG-I pulled down RNA, UV cross-linking (2 doses at 150 mJ/cm^2) was performed on HEK293 and HCT116 overexpressing RIG-I prior to cell lysis. The same protocol for pulldown and RNA purification experiments was performed as described above.

Row | Molecule | levels in RIG-I pulldown after IR (HEK293 overexpressing K858A-K861A RNA binding deficient mutant RIG-I) | binding to K858A-K861A RNA binding deficient mutant RIG-I (CLIP-PCR)
1 | U2: snRNA, SEQ ID NO:21 | did not detect increased levels | 
2 | B1 |  | did not bind
